These results are taken from patent US20240148744A1 (Celgene Corporation, priority 2021, published 2024).

Each structure is given as a SMILES string. Like-named read-outs stand apart in the source and are kept apart here. Some results are limits rather than exact numbers.

For one assay, the system named is Dirofilaria immitis. Nature of the assay: Heartworm screen Dirofilaria immitis (stage DiMF/DiL4 not specified in the tables). Conditions: read-out: D. immitis Activity class. In kind it is cell-based.
For assay [1], the system named is Onchocerca gutturosa adult male worms. Nature of the assay: Onchocerca gutturosa in vitro screening model: adult worm motility score and MTT/formazan viability. In kind it is cell-based.
The test system of assay [2] is Adult and microfilariae B. malayi. The experiment in a line: In vitro parasite motility assay, B. malayi adult worms and microfilariae. In kind it is cell-based. Conditions: Brugia malayi, read-out: B. malayi Activity class.
Assay [3] concerns Adult and microfilariae B. pahangi. Nature of the assay: In vitro parasite motility assay, B. pahangi adult worms and microfilariae. In kind it is cell-based, Brugia pahangi.
[4] abbreviates: read-out: O. gutt Activity class.

On to `Cc1nc(S(=O)(=O)Nc2cccc3cccnc23)ccc1Cl` [Compound 184, 5-chloro-6-methyl-N-(quinolin-8-yl)pyridine-2-sulfonamide], for which the IC50 in the assay on Dirofilaria immitis is 200 to 500 nM; in assay [1] (setting [4]) it was < 200 nM.

`C[C@@H](C1CC1)n1ccnc1S(=O)(=O)Nc1cccc2cccnc12` [Compound 185, (S)-1-(1-cyclopropyl-ethyl)-N-(quinolin-8-yl)-1H-imidazole-2-sulfonamide]: the IC50 was 200 to 500 nM with Dirofilaria immitis and < 200 nM in assay [1] (setting [4]).

Regarding `Cc1cc(S(=O)(=O)Nc2cccc3cccnc23)cc(C)n1` [Compound 186, 2,6-dimethyl-N-(quinolin-8-yl)pyridine-4-sulfonamide], the IC50 lay within 500 to 5000 nM in the assay with Dirofilaria immitis and 200 to 500 nM in assay [1] (setting [4]).

Regarding `Cc1ccc(S(=O)(=O)Nc2cccc3cccnc23)c(C)n1` [Compound 187, 2,6-dimethyl-N-(quinolin-8-yl)pyridine-3-sulfonamide], the IC50 (in the assay on Dirofilaria immitis; in assay [1] (setting [4])) was 500 to 5000 nM each time.

As to `Cc1ccc(S(=O)(=O)Nc2cccc3cccnc23)c(Cl)n1` [Compound 188, 2-chloro-6-methyl-N-(quinolin-8-yl)pyridine-3-sulfonamide], the IC50 is 500 to 5000 nM with Dirofilaria immitis and < 200 nM in assay [1] (setting [4]).

Regarding `O=S(=O)(Nc1cccc2cccnc12)c1ccc(-c2ccccc2)nc1` [Compound 189, 6-phenyl-N-(quinolin-8-yl)pyridine-3-sulfonamide], the IC50 is 500 to 5000 nM in the assay on Dirofilaria immitis and 200 to 500 nM in assay [1] (setting [4]).

Turning to `O=S(=O)(Nc1cccc2cccnc12)c1ccc(C(F)(F)F)nc1` [Compound 190, N-(quinolin-8-yl)-6-(trifluoromethyl) pyridine-3-sulfonamide], the IC50 (with Dirofilaria immitis; in assay [1] (setting [4])) was < 200 nM in each case.

For the molecule `CCn1cc(C)nc1S(=O)(=O)Nc1cccc2cccnc12` [Compound 191, 1-ethyl-4-methyl-N-(quinolin-8-yl)-1H-imidazole-2-sulfonamide], the results for the IC50 (in the assay on Dirofilaria immitis; in assay [1] (setting [4])) were 200 to 500 nM and < 200 nM, respectively.

Take `CCn1ccc(S(=O)(=O)Nc2cccc3cccnc23)n1` [Compound 193, 1-ethyl-N-(quinolin-8-yl)-1H-pyrazole-3-sulfonamide]: the values for the IC50 (with Dirofilaria immitis; in assay [1] (setting [4])) were 500 to 5000 nM and 200 to 500 nM, respectively.

As to `Cc1ccc(S(=O)(=O)Nc2cccc3nccnc23)nc1` [Compound 196, 5-methyl-N-(quinoxalin-5-yl)pyridine-2-sulfonamide], the IC50 (in the assay on Dirofilaria immitis; in assay [1] (setting [4])) was 200 to 500 nM each time.

As to `COc1nccc(S(=O)(=O)Nc2cccc3cccnc23)n1` [Compound 197, 2-methoxy-N-(quinolin-8-yl)pyrimidine-4-sulfonamide], the results for the IC50 (in the assay with Dirofilaria immitis; in assay [1] (setting [4])) were 500 to 5000 nM and 200 to 500 nM, respectively.

In the case of `CC(C)n1nccc1S(=O)(=O)Nc1cccc2cccnc12` [Compound 206, 1-isopropyl-N-(quinolin-8-yl)-1H-pyrazole-5-sulfonamide], the IC50 in the assay on Dirofilaria immitis lay in the range of 500 to 5000 nM; in assay [1] (setting [4]) it was 200 to 500 nM.

On to `CN(C)C(=O)c1cccnc1S(=O)(=O)Nc1cccc2cccnc12` [Compound 207, N,N-dimethyl-2-(N-quinolin-8-ylsulfamoyl) nicotinamide], for which the IC50 (in the assay with Dirofilaria immitis; in assay [1] (setting [4])) was 500 to 5000 nM each time.

As to `CN(C)c1cccnc1S(=O)(=O)Nc1cccc2cccnc12` [Compound 208, 3-(dimethylamino)-N-(quinolin-8-yl)pyridine-2-sulfonamide], the IC50 in the assay on Dirofilaria immitis is 500 to 5000 nM; in assay [1] (setting [4]) it was < 200 nM.

For the molecule `CC(C)c1cccnc1S(=O)(=O)Nc1cccc2cccnc12` [Compound 211, 3-isopropyl-N-(quinolin-8-yl)pyridine-2-sulfonamide], the results for the IC50 (in the assay with Dirofilaria immitis; in assay [1] (setting [4])) were 500 to 5000 nM and < 200 nM, respectively.

Consider `Cc1cccnc1S(=O)(=O)Nc1cccc2cccnc12` [Compound 213, 3-methyl-N-(quinolin-8-yl)pyridine-2-sulfonamide], for which the IC50 with Dirofilaria immitis is 500 to 5000 nM; in assay [1] (setting [4]), < 200 nM.

On to `O=S(=O)(Nc1cccc2cccnc12)c1ncccc1Cl` [Compound 215, 3-chloro-N-(quinolin-8-yl)pyridine-2-sulfonamide], for which the IC50 with Dirofilaria immitis is 500 to 5000 nM; in assay [1] (setting [4]), < 200 nM.

As for `O=S(=O)(Nc1cccc2cccnc12)c1cc(Cl)ccn1` [Compound 220, 4-chloro-N-(quinolin-8-yl)pyridine-2-sulfonamide], the IC50 (with Dirofilaria immitis; in assay [1] (setting [4])) was < 200 nM in each case.

`O=S(=O)(Nc1cccc2cccnc12)c1cccc(Cl)n1` [Compound 221, 6-chloro-N-(quinolin-8-yl)pyridine-2-sulfonamide]: the values for the IC50 (with Dirofilaria immitis; in assay [1] (setting [4])) were 500 to 5000 nM and < 200 nM, respectively.

For `COc1ccnc(S(=O)(=O)Nc2cccc3cccnc23)c1` [Compound 222, 4-methoxy-N-(quinolin-8-yl)pyridine-2-sulfonamide], the IC50 with Dirofilaria immitis was 200 to 500 nM; in assay [1] (setting [4]), < 200 nM.

Consider `O=S(=O)(Nc1cccc2cccnc12)c1nccc2ccccc12` [Compound 225, N-(quinolin-8-yl)isoquinoline-1-sulfonamide], for which the IC50 in the assay with Dirofilaria immitis is 500 to 5000 nM; in assay [1] (setting [4]), < 200 nM.

As for `Cc1cn(C)c(S(=O)(=O)Nc2cccc3cccnc23)n1` [Compound 231, 1,4-dimethyl-N-(quinolin-8-yl)-1H-imidazole-2-sulfonamide], the IC50 was < 200 nM in the assay with Dirofilaria immitis and 500 to 5000 nM in assay [1] (setting [4]).

As for `CC(C)Oc1ccc(S(=O)(=O)Nc2cccc3cccnc23)nc1` [Compound 242, 5-isopropoxy-N-(quinolin-8-yl)pyridine-2-sulfonamide], the IC50 in the assay on Dirofilaria immitis is 200 to 500 nM; in assay [1] (setting [4]), < 200 nM.

With `CC(C)Oc1ccnc(S(=O)(=O)Nc2cccc3cccnc23)c1` [Compound 245, 4-isopropoxy-N-(quinolin-8-yl)pyridine-2-sulfonamide], the IC50 with Dirofilaria immitis was 200 to 500 nM; in assay [1] (setting [4]), < 200 nM.

As to `Cc1ccc(S(=O)(=O)Nc2cccc3cccnc23)nc1` [Compound 248, 5-methyl-N-(quinolin-8-yl)pyridine-2-sulfonamide], the IC50 in the assay with Dirofilaria immitis fell in the range of 200 to 500 nM; in assay [1] (setting [4]) it was 500 to 5000 nM.

Take `Nc1cccc(S(=O)(=O)Nc2cccc3cccnc23)n1` [Compound 264, 6-amino-N-(quinolin-8-yl)pyridin-2-sulfonamide]: the IC50 (with Dirofilaria immitis; in assay [1] (setting [4])) was 500 to 5000 nM in each case.

Regarding `Cc1ccnc(S(=O)(=O)Nc2cccc3cccnc23)c1` [Compound 265, 4-methyl-N-(quinolin-8-yl)pyridine-2-sulfonamide], the IC50 in the assay on Dirofilaria immitis is 200 to 500 nM; in assay [1] (read-out: O. gutt Activity class, in vitro motility), < 200 nM.

With `O=S(=O)(Nc1cccc2cccnc12)c1cn[nH]c1` [Compound 267, N-(quinolin-8-yl)-1H-pyrazol-4-sulfonamide], the IC50 in assay [2] is 500 to 5000 nM.

For `Cn1cc(S(=O)(=O)Nc2cccc3cccnc23)cn1` [Compound 268, 1-methyl-N-(quinolin-8-yl)-1H-pyrazole-4-sulfonamide], in assay [3] (activity against microfilaria (level D)), the “B. phange Activity class” value is reported as “D (activity against microfilaria at compound concentrations below 1 μM (activity level D))”. Further, the IC50 in assay [2] was 500 to 5000 nM.

Regarding `O=S(=O)(Nc1cccc2cccnc12)c1ncccc1F` [Compound 269, 3-fluoro-N-(quinolin-8-yl)pyridine-2-sulfonamide], the IC50 in the assay with Dirofilaria immitis is 500 to 5000 nM; in assay [1] (setting [4]) it was < 200 nM. Also, the “B. phange Activity class” value in assay [3] (activity against adult filaria (level E)) is “E (activity against adult filaria at compound concentrations below 1 μM (activity level E))”.

For `O=S(=O)(Nc1cccc2cccnc12)c1cc2ccccc2cn1` [Compound 270, N-(quinolin-8-yl)isoquinoline-3-sulfonamide], the results for the IC50 (in the assay with Dirofilaria immitis; in assay [1] (setting [4])) were 200 to 500 nM and < 200 nM, respectively.

As to `O=S(=O)(Nc1cccc2cccnc12)c1cnccn1` [Compound 271, N-(quinolin-8-yl)pyrazine-2-sulfonamide], the results for the IC50 (in the assay on Dirofilaria immitis; in assay [1] (setting [4])) were 500 to 5000 nM and < 200 nM, respectively.

For `Cc1cccc(S(=O)(=O)Nc2cccc3cccnc23)n1` [Compound 272, 6-methyl-N-(quinolin-8-yl)pyridine-2-sulfonamide], the IC50 is 500 to 5000 nM in the assay with Dirofilaria immitis and < 200 nM in assay [1] (setting [4]).

Take `Cc1ccc(S(=O)(=O)Nc2cccc3cccnc23)o1` [Compound 276, 5-methyl-N-(quinolin-8-yl)furan-2-sulfonamide]: the IC50 (in the assay on Dirofilaria immitis; in assay [1] (setting [4])) was 200 to 500 nM in each case.

Take `O=S(=O)(Nc1cccc2cccnc12)c1ccccn1` [Compound 280, N-(quinolin-8-yl)pyridine-2-sulfonamide]: the IC50 with Dirofilaria immitis is 200 to 500 nM; in assay [1] (setting [4]) it was 500 to 5000 nM.
